{
  "source": "patent US5753516A",
  "about": "“Screening method for ligands of the EBI-1 receptor” (priority 1995, dated 1998)",
  "key": {"LAZ 221 cells": {"test_system": "LAZ 221 cells", "assay": "Migration (chemotaxis) of LAZ 221 pre-B ALL cells", "format": "cell-based, human", "conditions": "LAZ 221, peptide 100 nM; spontaneous locomotion 1886"}, "LAZ 388 cells [1]": {"test_system": "LAZ 388 cells", "assay": "Migration (chemotaxis) of LAZ 388 EBV-transformed B cells", "format": "cell-based, human"}, "NALM 6 cells [2]": {"test_system": "NALM 6 cells", "assay": "Light scatter analysis of morphological response of NALM 6 cells", "format": "cell-based, human", "description": "FIG. 2, Panels A and B. Methionine-enkephalin induces a morphological change in NALM 6 cells. […] Analysis of forward and right angle light scatter was performed using a Becton Dickinson FACS SCAN flow cytometer as described (Sklar et al., 1984). Histograms of light scatter were obtained by analyzing 10,000 cells per sample. Data are expressed as mean channel number (y-axis) vs concentration of MET-ENK (x-axis).\nForward and right angle light scatter analysis of the morphological response to MET-ENK: The effect of MET-ENK on cell morphology were measured using flow cytometric analysis of forward and right angle light scatter as previously described (Sklar et al., 1984). For these studies 10^6 cells were resuspended in one-ml of PBS, activated by the addition of MET-ENK or maintained in the PBS buffer alone, and then, incubated for 5 minutes at 37° C. […] Samples were analyzed on a Becton Dickinson FACS SCAN flow cytometer with excitation at 488 nm (Sklar et al., 1984). Histograms of light scattering were obtained by analyzing 10,000 cells for each sample. Data analysis was performed using the Lysys System software package."}, "LAZ 388 cells [3]": {"test_system": "LAZ 388 cells", "assay": "Flow cytometry of surface molecule expression on LAZ 388 cells", "format": "cell-based, human", "description": "Immunofluorescence Staining and Flow Cytometric Analysis of Cell Surface Molecules: Cells were resuspended at 1×10^6 /ml in PBS and then incubated for periods of 5 to 120 minutes at 37° C. with MET-ENK at doses of 0 to 10^-5 M. Incubations were terminated by transferring samples to an ice bath and then pelleting the cells by centrifugation at 1800 rpm for 5 minutes at 4° C.\nImmunofluorescence staining was carried out in 4-ml tubes maintained in an ice water bath. […] Cells were subsequently fixed within a 2% solution of formalin and maintained in the dark at 10° C. until analyzed.\nFlow cytometric analysis was performed using a FACS SCAN Flow Cytometer (Becton Dickinson, Mountain View, Calif.) equipped with a HP9000 Series computer and the Lysys System software analysis package. Data were collected as histograms depicting the fluorescence intensity for 5,000 to 10,000 cells per sample.\nThe non-binding IgG1 MOPC myeloma protein, anti-macrophage/monocyte specific CD14 (MO2; IgG2) and anti-T cell specific CD3 (OKT3; IgG2a) mAb were employed as nonreactive controls for measuring the autofluorescence of B cells."}, "Jurkat cells": {"test_system": "Jurkat cells", "assay": "[Ca^2+ ]i response of Jurkat cells (Indo-1, flow cytometry)", "format": "cell-based, human", "description": "FIG. 14, Panel A and B. Methionine enkephalin and opiate receptor agonists selective for […] stimulate transmembrane signaling in Jurkat cells. Cells were labeled with Indo-1, washed twice in serum-free medium and held at 4° C. until analyzed. Indo-1 fluorescence was measured using flow cytometry as previously described (Heagy et al., 1992; Ledbetter et al., 1987; Chang et al., 1989; Rabinovitch et al., 1986). The fluorescence for nonstimulated cells (measured in medium, alone) was arbitrarily set at 1.0. Data are presented as per cent increase in the response [(r-baseline) x 100%]. Baseline [Ca^2+ ]i value measured for Jurkat cells (n=4) was 80±40 nM. Baseline Panel A, Jurkat cell response to MET-ENK (0.1 nM, 10 nM and 1 μM) and to the d- selective agonist Dermenkephalin (10 nM). Panel B, Jurkat cell response to the d- selective agonist (D-Pen ^2,5, p Cl-Phe^4)-ENK (0.1 nM. 10 nM. 1 μM).\nThe inventors (Heagy et al., 1992) have previously shown that when applied to NALM 6 cells the κ-1 agonist U69,953 stimulates a rapid increase in [Ca^2+ ]i. […] In order to determine whether the sites the inventors have identified using the δ-selective agonists also elicit Ca^2+ responses the inventors measured the effects of opioid peptides and δ-selective agonists on the calcium response. […] These studies provide evidence that Jurkat cells have functional δ opiate receptor sites which stimulate transmembrane signaling via rapid increases in [Ca^2+ ]i."}, "NALM 6 cells [4]": {"test_system": "NALM 6 cells", "assay": "cAMP accumulation in NALM 6 cells", "format": "cell-based, human", "conditions": "forskolin-activated NALM 6", "description": "FIG. 16. […] NALM 6 cells (2×10^6 /ml) were stimulated with forskolin or forskolin+MET-ENK at the concentrations indicated and in the presence of 1 mM isobutyl-1-methylxanthine. Cyclic AMP was assayed after 15 minutes at 37° C. Data are expressed as fmoles of cAMP/minute. Samples were processed as previously described Cobb, Heagy, Dunner et al., 1980; cAMP was measured using a commercial RIA kit."}, "COS (Vector Control)": {"test_system": "COS (Vector Control)", "assay": "cAMP accumulation in COS cells (vector control)", "format": "cell-based, monkey"}, "human T cells [5]": {"test_system": "human T cells", "assay": "Migration of human peripheral blood T cells", "format": "cell-based"}, "human T cells [6]": {"test_system": "human T cells", "conditions": "Heagy et al., 1990; cited from earlier work"}, "[7]": {"test_system": "lymphocytes and macrophages", "conditions": "cited from earlier work"}, "PBMC": {"test_system": "PBMC", "conditions": "cited from earlier work"}, "T cells": {"test_system": "T cells", "conditions": "literature; cited from earlier work"}, "lymphocytes": {"test_system": "lymphocytes", "conditions": "infusion into afferent lymphatics, sheep; cited from earlier work"}, "NK cells and lymphocytes": {"test_system": "NK cells and lymphocytes", "conditions": "literature; cited from earlier work"}, "[8]": {"conditions": "LAZ 388, 10^-7 M MET-ENK, untreated 1.0"}, "[9]": {"conditions": "LAZ 388, 10^-7 M MET-ENK, untreated 11.4"}},
  "data": [
    {"compound": "CSCC[C@H](NC(=O)[C@H](Cc1ccccc1)NC(=O)CNC(=O)CNC(=O)[C@@H](N)Cc1ccc(O)cc1)C(=O)O", "note": "[MET-ENK, Tyr-Gly-Gly-Phe-Met]", "values": [
      {"measurement": "cell migration (cell counts)", "setting": "LAZ 221 cells", "value": 6199, "unit": "cell counts"},
      {"measurement": "cell migration (cell counts)", "setting": "LAZ 388 cells [1]; LAZ 388, peptide 100 nM, spontaneous locomotion 1938", "value": 1986, "unit": "cell counts"},
      {"measurement": "migration of LAZ 388 cells", "setting": "LAZ 388 cells [1]; LAZ 388 vs spontaneous locomotion", "value": "equivalent to their spontaneous locomotion"},
      {"measurement": "morphological response (light scatter) of NALM 6 cells", "setting": "NALM 6 cells [2]; 5 minutes at 37° C.", "value": "increase in light scatter (right angle and forward)"},
      {"measurement": "lowest MET-ENK concentration causing morphological response", "setting": "NALM 6 cells [2]; NALM 6", "value": 0.01, "unit": "nM"},
      {"measurement": "time of exposure for morphological response", "setting": "NALM 6 cells [2]; NALM 6", "value": "≤ 5", "unit": "minutes"},
      {"measurement": "CD11a, CD18, CD54 expression, MET-ENK treated vs not", "setting": "LAZ 388 cells [3]; LAZ 388", "value": "equivalent for the MET-ENK-treated (+) and nontreated (-) cells"},
      {"measurement": "CD2 (LFA-2) fluorescence ratio", "setting": "LAZ 388 cells [3]; [8]", "value": 0.9},
      {"measurement": "CD49b (VLA-α2 chain) fluorescence ratio", "setting": "LAZ 388 cells [3]; [8]", "value": 1.0},
      {"measurement": "VLA-3 fluorescence ratio", "setting": "LAZ 388 cells [3]; [8]", "value": 1.0},
      {"measurement": "VLA-5 fluorescence ratio", "setting": "LAZ 388 cells [3]; [8]", "value": 1.0},
      {"measurement": "CD72 fluorescence ratio", "setting": "LAZ 388 cells [3]; LAZ 388, 10^-7 M MET-ENK, untreated 1.4", "value": 1.7},
      {"measurement": "CD11b (Mac 1) fluorescence ratio", "setting": "LAZ 388 cells [3]; LAZ 388, 10^-7 M MET-ENK, untreated 1.5", "value": 1.5},
      {"measurement": "CD20 fluorescence ratio", "setting": "LAZ 388 cells [3]; LAZ 388, 10^-7 M MET-ENK, untreated 1.7", "value": 1.7},
      {"measurement": "VLA-1 fluorescence ratio", "setting": "LAZ 388 cells [3]; LAZ 388, 10^-7 M MET-ENK, untreated 1.8", "value": 2.0},
      {"measurement": "CD19 fluorescence ratio", "setting": "LAZ 388 cells [3]; LAZ 388, 10^-7 M MET-ENK, untreated 8.6", "value": 8.0},
      {"measurement": "CD22 fluorescence ratio", "setting": "LAZ 388 cells [3]; [9]", "value": 11.1},
      {"measurement": "CD29 (VLA-β chain) fluorescence ratio", "setting": "LAZ 388 cells [3]; [9]", "value": 11.2},
      {"measurement": "VLA-β; DE9N fluorescence ratio", "setting": "LAZ 388 cells [3]; LAZ 388, 10^-7 M MET-ENK, untreated 11.5", "value": 11.1},
      {"measurement": "CD18 (Integrin β chain) fluorescence ratio", "setting": "LAZ 388 cells [3]; LAZ 388, 10^-7 M MET-ENK, untreated 11.9", "value": 10.1},
      {"measurement": "CD11a (LF1α) fluorescence ratio", "setting": "LAZ 388 cells [3]; LAZ 388, 10^-7 M MET-ENK, untreated 12.4", "value": 11.4},
      {"measurement": "CD54 (ICAM-1) fluorescence ratio", "setting": "LAZ 388 cells [3]; LAZ 388, 10^-7 M MET-ENK, untreated 18.7", "value": 16.6},
      {"measurement": "CD58 (LFA-3) fluorescence ratio", "setting": "LAZ 388 cells [3]; LAZ 388, 10^-7 M MET-ENK, untreated 22.4", "value": 21.8},
      {"measurement": "CD45 (T200) fluorescence ratio", "setting": "LAZ 388 cells [3]; LAZ 388, 10^-7 M MET-ENK, untreated 27.4", "value": 27.3},
      {"measurement": "CD23 fluorescence ratio", "setting": "LAZ 388 cells [3]; LAZ 388, 10^-7 M MET-ENK, untreated 68.2", "value": 70.7},
      {"measurement": "CD44 (homing receptor) fluorescence ratio", "setting": "LAZ 388 cells [3]; LAZ 388, 10^-7 M MET-ENK, untreated 79.0", "value": 84.6},
      {"measurement": "[Ca^2+ ]i response", "setting": "Jurkat cells", "value": "elicited a rapid rise in [Ca^2+ ]i"},
      {"measurement": "cAMP production in NALM 6 cells", "setting": "NALM 6 cells [4]", "value": "enhancement in the production of cAMP"},
      {"measurement": "cAMP production in NALM 6 cells", "setting": "NALM 6 cells [4]; listed as Methionine-enkephalin", "value": "potentiates cAMP accumulation"},
      {"measurement": "cAMP", "setting": "COS (Vector Control); COS (Vector Control), MET-ENK 0.01 nM, naloxone 10 μM, forskolin 0.1 μM, controls 40.2 and 38.8", "value": 31.6, "unit": "fmoles/cell × 10^3"},
      {"measurement": "effect on cAMP, mock transfected controls", "setting": "COS (Vector Control); COS transfected with vector alone", "value": "no effect on the cAMP produced in mock transfected controls"},
      {"measurement": "human lymphocyte / T cell migration", "setting": "human T cells [5]", "value": "stimulate human lymphocyte migration"},
      {"measurement": "human T cell migration", "setting": "human T cells [6]", "value": "potent stimulants for the migration of isolated human T cells"},
      {"measurement": "lymphocyte trafficking in vivo", "setting": "[7]; animals", "value": "enhance lymphocyte trafficking"},
      {"measurement": "lymphocyte and macrophage migration into ventricles", "setting": "[7]; injection into cerebroventricles of rodents", "value": "elicited lymphocyte and macrophage migration into the ventricles"},
      {"measurement": "blastogenic responses to T and B cell lectins", "setting": "PBMC; PBMC", "value": "augment the blastogenic responses of PBMC to both T and B cell lectins"},
      {"measurement": "IFN-γ production", "setting": "PBMC; lectin stimulated PBMC", "value": "enhance IFN-γ production"},
      {"measurement": "T cell aggregation, rosetting, morphology, adhesion molecules", "setting": "T cells", "value": "enhance T cell aggregation"},
      {"measurement": "lymphocyte exit from popliteal nodes", "setting": "lymphocytes", "value": "stimulated small and blast lymphocytes to exit the node and enter the efferent lymph"},
      {"measurement": "NK cell activity, lymphocyte proliferation, antibody production", "setting": "NK cells and lymphocytes", "value": "diminish NK cell activity, decrease lymphocyte proliferation, and inhibit antibody production"}
    ]}
  ]
}
